Assay results: patent publication US6737383B1, “Herbicidal oxadiazolidines” (priority 1999, dated 2004)

Tests used:
cocklebur = test: Test B pre/postemergence cocklebur; assay type: in vivo, Xanthium strumarium; details: for Cocklebur plant response rating: scale of 0 to 10 where 0 is no effect and 10 is complete control
Outline: (§1)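 Test chemicals in a non-phytotoxic solvent mixture with surfactant were sprayed preemergence onto planted seeds and postemergence onto plants 2 to 18 cm tall (1- to 4-leaf stage). After twelve to sixteen days in a greenhouse, injury was visually rated against untreated controls from 0 (no effect) to 10 (complete control).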

bedstraw = test: Test B pre/postemergence bedstraw; assay type: in vivo, Galium aparine; details: Postemergence
Outline: as §1

bamyardgrass = test: Test B flood test barnyardgrass; assay type: in vivo, Echinochloa crus-galli
Outline: (§2)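 Each value is a visual injury score relative to controls, with 10 meaning complete control and 0 no effect. Evaluation took place twelve to sixteen days after the 2-leaf-stage plants were treated and kept in the greenhouse.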

surinam grass = test: Test B pre/postemergence surinam grass; assay type: in vivo, Brachiaria decumbens; details: for B. signalgrass plant response rating: scale of 0 to 10 where 0 is no effect and 10 is complete control
Outline: as §1

morningglory = test: Test B pre/postemergence morningglory; assay type: in vivo, Ipomoea hederacea; details: for Morningglory plant response rating: scale of 0 to 10 where 0 is no effect and 10 is complete control
Outline: as §1

duck salad = test: Test B flood test duck salad; assay type: in vivo, Heteranthera limosa
Outline: as §2

blackgrass = test: Test B pre/postemergence blackgrass; assay type: in vivo, Alopecurus myosuroides; details: for Blackgrass plant response rating: scale of 0 to 10 where 0 is no effect and 10 is complete control
Outline: as §1

purple nutsedge = test: Test B pre/postemergence purple nutsedge; assay type: in vivo, Cyperus rotundus; details: for Nutsedge plant response rating: scale of 0 to 10 where 0 is no effect and 10 is complete control
Outline: as §1

pigweed = test: Test B pre/postemergence pigweed; assay type: in vivo, Amaranthus retroflexus; details: for Redroot pigweed plant response rating: scale of 0 to 10 where 0 is no effect and 10 is complete control
Outline: as §1

velvetleaf = test: Test B pre/postemergence velvetleaf; assay type: in vivo, Abutilon theophrasti; details: for Velvetleaf plant response rating: scale of 0 to 10 where 0 is no effect and 10 is complete control
Outline: as §1

corn = test: Test B pre/postemergence corn; assay type: in vivo, Zea mays; details: for Corn plant response rating: scale of 0 to 10 where 0 is no effect and 10 is complete control
Outline: as §1

soybean = test: Test B pre/postemergence soybean; assay type: in vivo, Glycine max; details: for Soybean plant response rating: scale of 0 to 10 where 0 is no effect and 10 is complete control
Outline: as §1

smallflower flatsedge = test: Test B flood test smallflower flatsedge; assay type: in vivo, Cyperus difformis
Outline: as §2

rape = test: Test B pre/postemergence rape; assay type: in vivo, Brassica napus; details: for Rape plant response rating: scale of 0 to 10 where 0 is no effect and 10 is complete control
Outline: as §1

sugar beet = test: Test B pre/postemergence sugar beet; assay type: in vivo, Beta vulgaris; details: for Sugarbeets plant response rating: scale of 0 to 10 where 0 is no effect and 10 is complete control
Outline: as §1

giant foxtail = test: Test B pre/postemergence giant foxtail; assay type: in vivo, Setaria faberii; details: for Giant foxtail plant response rating: scale of 0 to 10 where 0 is no effect and 10 is complete control
Outline: as §1

[1] = Postemergence, Rate 125 g/ha, scale 0 to 10, 0 is no effect, 10 is complete control
[2] = Postemergence, Rate 250 g/ha, scale 0 to 10, 0 is no effect, 10 is complete control
[3] = Preemergence, Rate 62 g/ha, scale 0 to 10 (0 no effect, 10 complete control)
[4] = Rate 500 g/ha, Postemergence, scale 0 to 10, 0 no effect, 10 complete control
[5] = Rate 62 g/ha, flood test species, Pre-emergence, visual evaluation after twelve to sixteen days
[6] = Rate 125 g/ha, under heading Pre-emergence, flood test species, visual evaluation after twelve to sixteen days
[7] = Rate 250 g/ha, Pre-emergence, flood-test species, scale 0 to 10, 0 is no effect, 10 is complete control
[8] = Rate 500 g/ha, Pre-emergence, flood test species, scale 0 to 10 (0 no effect, 10 complete control)

CC(C)N(C(=O)n1oc(=O)n(N2C(C)CCCC2C)c1=O)c1ccc(F)cc1 (stereo not shown) [Compound 382]
10: Giant foxtail plant response rating (giant foxtail; Preemergence, Rate 500 g/ha)
7: Blackgrass plant response rating (blackgrass; Preemergence, Rate 500 g/ha)
3: Blackgrass plant response rating (blackgrass; Preemergence, Rate 250 g/ha) | Plant response rating, Soybean (soybean; [1]) | Plant response rating, Giant foxtail (giant foxtail; [1]) | Plant response rating, Giant foxtail (giant foxtail; [2])
6: B. signalgrass plant response rating (surinam grass; Preemergence, Rate 500 g/ha)
5: Plant response rating, Soybean (soybean; [4])
9: Plant response rating, Giant foxtail (giant foxtail; [3]) | Giant foxtail plant response rating (0 to 10 scale) (giant foxtail; Preemergence, Rate 125 g/ha) | Giant foxtail plant response rating (giant foxtail; Preemergence, Rate 250 g/ha)
4: Plant response rating, Bedstraw (bedstraw; Rate 250 g/ha, scale 0 to 10, 0 is no effect, 10 is complete control) | Plant response rating, Bedstraw (bedstraw; Rate 500 g/ha, scale 0 to 10, 0 no effect, 10 complete control) | Plant response rating, Soybean (soybean; [2]) | Plant response rating, Giant foxtail (giant foxtail; [4])
1: Blackgrass plant response rating (0 to 10 scale) (blackgrass; Preemergence, Rate 125 g/ha) | Soybean plant response rating (soybean; Rate 62 g/ha, Postemergence)
0: Plant response rating, Cocklebur (cocklebur; [1]) | Plant response rating, Cocklebur (cocklebur; [2]) | Plant response rating, Cocklebur (cocklebur; [3]) | Cocklebur plant response rating (0 to 10 scale) (cocklebur; Preemergence, Rate 125 g/ha) | Cocklebur plant response rating (cocklebur; Preemergence, Rate 250 g/ha) | Cocklebur plant response rating (cocklebur; Rate 62 g/ha, Postemergence) | Plant response rating, Cocklebur (cocklebur; [4]) | Plant response rating, Barnyardgrass (0 to 10 scale, 0 is no effect, 10 is complete control) (bamyardgrass; [5]) | Barnyardgrass plant response rating (0 to 10 scale, 0 is no effect, 10 is complete control) (bamyardgrass; [6]) | Barnyardgrass plant response rating (bamyardgrass; [7]) | Barnyardgrass plant response rating (bamyardgrass; [8]) | Plant response rating, B. signalgrass (surinam grass; [1]) | Plant response rating, B. signalgrass (surinam grass; [2]) | Plant response rating, B. signalgrass (surinam grass; [3]) | B. signalgrass plant response rating (0 to 10 scale, 0 is no effect, 10 is complete control) (surinam grass; Preemergence, Rate 125 g/ha) | B. signalgrass plant response rating (surinam grass; Rate 62 g/ha, Postemergence) | Plant response rating, B. signalgrass (surinam grass; [4]) | Plant response rating, Morningglory (morningglory; [1]) | Plant response rating, Morningglory (morningglory; [2]) | Plant response rating, Morningglory (morningglory; [3]) | Morningglory plant response rating (0 to 10 scale) (morningglory; Preemergence, Rate 125 g/ha) | Morningglory plant response rating (morningglory; Preemergence, Rate 250 g/ha) | Morningglory plant response rating (morningglory; Preemergence, Rate 500 g/ha) | Morningglory plant response rating (morningglory; Rate 62 g/ha, Postemergence) | Plant response rating, Morningglory (morningglory; [4]) | Plant response rating, Ducksalad (0 to 10 scale, 0 is no effect, 10 is complete control) (duck salad; [5]) | Ducksalad plant response rating (0 to 10 scale, 0 is no effect, 10 is complete control) (duck salad; [6]) | Ducksalad plant response rating (duck salad; [7]) | Ducksalad plant response rating (duck salad; [8]) | Plant response rating, Blackgrass (blackgrass; [1]) | Plant response rating, Blackgrass (blackgrass; [3]) | Blackgrass plant response rating (blackgrass; Rate 62 g/ha, Postemergence) | Plant response rating, Nutsedge (purple nutsedge; [1]) | Plant response rating, Nutsedge (purple nutsedge; [2]) | Plant response rating, Nutsedge (purple nutsedge; [3]) | Nutsedge plant response rating (0 to 10 scale) (purple nutsedge; Preemergence, Rate 125 g/ha) | Nutsedge plant response rating (purple nutsedge; Preemergence, Rate 250 g/ha) | Nutsedge plant response rating (purple nutsedge; Preemergence, Rate 500 g/ha) | Nutsedge plant response rating (purple nutsedge; Rate 62 g/ha, Postemergence) | Plant response rating, Nutsedge (purple nutsedge; [4]) | Plant response rating, Redroot pigweed (pigweed; [1]) | Plant response rating, Redroot pigweed (pigweed; [2]) | Plant response rating, Redroot pigweed (pigweed; [3]) | Redroot pigweed plant response rating (0 to 10 scale) (pigweed; Preemergence, Rate 125 g/ha) | Redroot pigweed plant response rating (pigweed; Preemergence, Rate 250 g/ha) | Redroot pigweed plant response rating (pigweed; Preemergence, Rate 500 g/ha) | Redroot pigweed plant response rating (pigweed; Rate 62 g/ha, Postemergence) | Plant response rating, Redroot pigweed (pigweed; [4]) | Plant response rating, Velvetleaf (velvetleaf; [1]) | Plant response rating, Velvetleaf (velvetleaf; [2]) | Plant response rating, Velvetleaf (velvetleaf; [3]) | Velvetleaf plant response rating (0 to 10 scale) (velvetleaf; Preemergence, Rate 125 g/ha) | Velvetleaf plant response rating (velvetleaf; Preemergence, Rate 250 g/ha) | Velvetleaf plant response rating (velvetleaf; Preemergence, Rate 500 g/ha) | Velvetleaf plant response rating (velvetleaf; Rate 62 g/ha, Postemergence) | Plant response rating, Velvetleaf (velvetleaf; [4]) | Plant response rating, Corn (corn; [1]) | Plant response rating, Corn (corn; [2]) | Plant response rating, Corn (corn; [3]) | Corn plant response rating (0 to 10 scale) (corn; Preemergence, Rate 125 g/ha) | Corn plant response rating (corn; Preemergence, Rate 250 g/ha) | Corn plant response rating (corn; Rate 62 g/ha, Postemergence) | Plant response rating, Corn (corn; [4]) | Plant response rating, Soybean (soybean; [3]) | Soybean plant response rating (0 to 10 scale) (soybean; Preemergence, Rate 125 g/ha) | Soybean plant response rating (soybean; Preemergence, Rate 250 g/ha) | Soybean plant response rating (soybean; Preemergence, Rate 500 g/ha) | Plant response rating, S. Flatsedge (0 to 10 scale, 0 is no effect, 10 is complete control) (smallflower flatsedge; [5]) | S. Flatsedge plant response rating (0 to 10 scale, 0 is no effect, 10 is complete control) (smallflower flatsedge; [6]) | S. Flatsedge plant response rating (smallflower flatsedge; [7]) | S. Flatsedge plant response rating (smallflower flatsedge; [8]) | Plant response rating, Rape (rape; [1]) | Plant response rating, Rape (rape; [2]) | Plant response rating, Rape (rape; [3]) | Rape plant response rating (0 to 10 scale) (rape; Preemergence, Rate 125 g/ha) | Rape plant response rating (rape; Preemergence, Rate 250 g/ha) | Rape plant response rating (rape; Preemergence, Rate 500 g/ha) | Rape plant response rating (rape; Rate 62 g/ha, Postemergence) | Plant response rating, Rape (rape; [4]) | Plant response rating, Sugarbeets (sugar beet; [1]) | Plant response rating, Sugarbeets (sugar beet; [2]) | Plant response rating, Sugarbeets (sugar beet; [3]) | Sugarbeets plant response rating (0 to 10 scale) (sugar beet; Preemergence, Rate 125 g/ha) | Sugarbeets plant response rating (sugar beet; Preemergence, Rate 250 g/ha) | Sugarbeets plant response rating (sugar beet; Preemergence, Rate 500 g/ha) | Sugarbeets plant response rating (sugar beet; Rate 62 g/ha, Postemergence) | Plant response rating, Sugarbeets (sugar beet; [4]) | Giant foxtail plant response rating (giant foxtail; Rate 62 g/ha, Postemergence)
2: B. signalgrass plant response rating (surinam grass; Preemergence, Rate 250 g/ha) | Plant response rating, Blackgrass (blackgrass; [2]) | Plant response rating, Blackgrass (blackgrass; [4]) | Corn plant response rating (corn; Preemergence, Rate 500 g/ha)
